The results in this text go back to patent publication US10793580B2, “Substituted pyrazoloazepin-8-ones and their use as phosphodiesterase inhibitors” (LEO Pharma A/S, priority 2016, dated 2020).

human PDE4D catalytic domain, sequence (Q08499 380-740): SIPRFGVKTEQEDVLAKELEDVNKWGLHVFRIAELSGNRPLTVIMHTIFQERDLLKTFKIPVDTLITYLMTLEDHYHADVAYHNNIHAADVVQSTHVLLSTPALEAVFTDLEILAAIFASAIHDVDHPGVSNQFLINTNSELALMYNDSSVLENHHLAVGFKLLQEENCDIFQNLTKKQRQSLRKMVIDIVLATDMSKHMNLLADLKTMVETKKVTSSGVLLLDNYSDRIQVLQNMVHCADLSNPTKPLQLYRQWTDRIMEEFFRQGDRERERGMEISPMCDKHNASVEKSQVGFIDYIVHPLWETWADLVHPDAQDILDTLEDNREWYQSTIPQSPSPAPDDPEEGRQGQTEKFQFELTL

The first assay addresses human PDE4D catalytic domain (Homo sapiens (Human), UniProt Q08499). Description: PDE4 Assay (TR-FRET, FAM-cAMP cleavage). The class given is biochemical. As to conditions: Table 16, Examples 277-296; read-out: PDE4 IC50 range. The essentials: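 PDE4D catalytic domain (S380-L740) incubated briefly with unlabelled cAMP plus FAM-cAMP and titrated compound. Reaction stopped with binding buffer holding metal-ion nanoparticles that bind AMP phospho groups and Tb donor, and AMP formation read by TR-FRET. IC50 versus controls, reported as ranges (nM).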
Background: TR-FRET usually uses a lanthanide donor and a delayed reading to cut background.
Consider `CCn1nc(C[C@@H](C)COC(=O)c2cnc(C)s2)c2c1C(=O)NCC1(CCOCC1)C2` [Example 291, [(2R)-3-(1-ethyl-8-oxo-spiro[6,7-dihydro-4H-pyrazolo[3,4-c]azepine-5,4′-tetrahydropyran]-3-yl)-2-methyl-propyl] 2-methylthiazole-5-carboxylate], for which the half-maximal inhibitory concentration (IC50) (as a rule, the concentration that gives 50% inhibition) was < 100 nM.

Staying with this assay, now noted: Table 17, Examples 297-316; read-out: PDE4 IC50 range.
As for `CCn1nc(CC(C)(C)COC(=O)C2CCN(C(=O)OC)CC2)c2c1C(=O)NCC1(CCOCC1)C2` [Example 315, [3-(1-ethyl-8-oxo-spiro[6,7-dihydro-4H-pyrazolo[3,4-c]azepine-5,4′-tetrahydro-pyran]-3-yl)-2,2-dimethyl-propyl] 1-methoxycarbonyl-peridine-4-carboxylate], the IC50 was < 100 nM.

With `CCn1nc(CC(C)(C)COC(=O)C2CCN(C)CC2)c2c1C(=O)NCC1(CCOCC1)C2` [Example 312, [3-(1-ethyl-8-oxo-spiro[6,7-dihydro-4H-pyrazolo[3,4-c]azepine-5,4′-tetrahydropyran]-3-yl)-2,2-dimethyl-propyl] 1-methylpiperidine-4-carboxylate], the IC50 lay within 100 to 500 nM.

As to `CCn1nc(CC(C)(C)COC(=O)c2cnsc2)c2c1C(=O)NCC1(CCOCC1)C2` [Example 304, [3-(1-ethyl-8-oxo-spiro[6,7-dihydro-4H-pyrazolo[3,4-c]azepine-5,4′-tetrahydro-pyran]-3-yl)-2,2-dimethyl-propyl] isothiazole-4-carboxylate], the half-inhibitory concentration (IC50) was < 100 nM.

Staying with this assay, now noted: human PDE4D catalytic domain (UniProt Q08499 [S380-L740]); 50% inhibition of substrate cleavage; read-out: PDE4 IC50 range.
For `CCc1nc(C(=O)OCCCc2nn(CC)c3c2CC2(CCOCC2)CNC3=O)cs1` [Example 260, 3-(1-ethyl-8-oxo-spiro[6,7-dihydro-4H-pyrazolo[3,4-c]azepine-5,4′-tetrahydropyran]-3-yl)propyl 2-ethylthiazole-4-carboxylate], the IC50 is < 100 nM.

Consider `CCn1nc(CC(C)(C)COC(=O)c2cccc(C(=O)N3CCOCC3)c2)c2c1C(=O)NCC1(CCOCC1)C2` [Example 232, [3-(1-ethyl-8-oxo-spiro[6,7-dihydro-4H-pyrazolo[3,4-c]azepine-5,4′-tetrahydro-pyran]-3-yl)-2,2-dimethyl-propyl] 3-(morpholine-4-carbonyl)benzoate], for which the IC50 is < 100 nM.

Take `CCn1nc(CC(C)(C)COC(=O)c2ccc(S(=O)(=O)N(C)Cc3ccccc3)cc2)c2c1C(=O)NCC1(CCOCC1)C2` [Example 214, [3-(1-ethyl-8-oxo-spiro[6,7-dihydro-4H-pyrazolo[3,4-c]azepine-5,4′-tetrahydropyran]-3-yl)-2,2-dimethyl-propyl] 4-[benzyl(methyl)sulfamoyl] benzoate]: the IC50 was < 100 nM.

For `CCn1nc(CC(C)(C)COC(=O)c2cccc(C(=O)N3CCN(C(C)=O)CC3)c2)c2c1C(=O)NCC1(CCOCC1)C2` [Example 234, [3-(1-ethyl-8-oxo-spiro[6,7-dihydro-4H-pyrazolo[3,4-c]azepine-5,4′-tetrahydropyran]-3-yl)-2,2-dimethyl-propyl] 3-(4-acetylpiperazine-1-carbonyl)benzoate], the half-maximal inhibitory concentration (IC50) was < 100 nM.

Regarding `CCn1nc(C[C@@H](C)COC(=O)c2ccccc2OC)c2c1C(=O)NCC1(CCOCC1)C2` [Example 151, [(2R)-3-(1-ethyl-8-oxo-spiro[6,7-dihydro-4H-pyrazolo[3,4-c]azepine-5,4′-tetrahydropyran]-3-yl)-2-methyl-propyl] 2-methoxybenzoate], the IC50 is < 100 nM.

Consider `CCn1nc(CCCOC(=O)c2ccc(C(F)(F)F)c(Cl)c2)c2c1C(=O)NCC1(CCOCC1)C2` [Example 86, 3-(1-ethyl-8-oxo-spiro[6,7-dihydro-4H-pyrazolo[3,4-c]azepine-5,4′-tetrahydro-pyran]-3-yl)propyl 3-chloro-4-(trifluoromethyl)benzoate], for which the IC50 was < 100 nM.

With `CCn1nc(CCCOC(=O)c2cccc(C(=O)N3CCN(C(C)=O)CC3)c2)c2c1C(=O)NCC1(CCOCC1)C2` [Example 120, 3-(1-ethyl-8-oxo-spiro[6,7-dihydro-4H-pyrazolo[3,4-c]azepine-5,4′-tetrahydropyran]-3-yl)propyl 3-(4-acetylpiperazine-1-carbonyl)benzoate], the IC50 was < 100 nM.

For the compound `CCn1nc(CCCOC(=O)c2ccc(C)cc2C)c2c1C(=O)NCC1(CCOCC1)C2` [Example 14, 3-(1-ethyl-8-oxo-spiro[6,7-dihydro-4H-pyrazolo[3,4-c]azepine-5,4′-tetrahydropyran]-3-yl)propyl 2,4-dimethylbenzoate], the IC50 is < 100 nM.

Take `CCn1nc(CCCOC(=O)c2cccc(C(C)=O)c2)c2c1C(=O)NCC1(CCOCC1)C2` [Example 28, 3-(1-ethyl-8-oxo-spiro[6,7-dihydro-4H-pyrazolo[3,4-c]azepine-5,4′-tetrahydropyran]-3-yl)propyl 3-acetylbenzoate]: the IC50 was < 100 nM.

In the case of `CCn1nc(CCCCOC(=O)c2ccc(C(=O)NC)cc2)c2c1C(=O)NCC1(CCOCC1)C2` [Example 128, 4-(1-ethyl-8-oxo-spiro[6,7-dihydro-4H-pyrazolo[3,4-c]azepine-5,4′-tetrahydropyran]-3-yl)butyl 4-(methyl-carbamoyl)benzoate], the concentration for half-maximal inhibition (IC50) is < 100 nM.

In the case of `CCn1nc(CCCCOC(=O)c2cc(C)nc(C)c2)c2c1C(=O)NCC1(CCOCC1)C2` [Example 273, 4-(1-ethyl-8-oxo-spiro[6,7-dihydro-4H-pyrazolo[3,4-c]azepine-5,4′-tetrahydro-pyran]-3-yl)butyl 2,6-dimethylpyridine-4-carboxylate], the 50% inhibitory concentration (IC50) is < 100 nM.

Turning to `CCn1nc(CCCCOC(=O)c2cc(C)n(C)n2)c2c1C(=O)NCC1(CCOCC1)C2` [Example 272, 4-(1-ethyl-8-oxo-spiro[6,7-dihydro-4H-pyrazolo[3,4-c]azepine-5,4′-tetrahydro-pyran]-3-yl)butyl 1,5-dimethylpyrazole-3-carboxylate], the IC50 is < 100 nM.

Take `CCn1nc(CCCOC(=O)c2cccc(OC)c2F)c2c1C(=O)NCC1(CCOCC1)C2` [Example 39, 3-(1-ethyl-8-oxo-spiro[6,7-dihydro-4H-pyrazolo[3,4-c]azepine-5,4′-tetrahydropyran]-3-yl)propyl 2-fluoro-3-methoxy-benzoate]: the half-inhibitory concentration (IC50) is < 100 nM.

Take `CCn1nc(CCCOC(=O)c2ccc(C(=O)N3CCN(C(C)=O)CC3)cc2)c2c1C(=O)NCC1(CCOCC1)C2` [Example 111, 3-(1-ethyl-8-oxo-spiro[6,7-dihydro-4H-pyrazolo[3,4-c]azepine-5,4′-tetrahydropyran]-3-yl)propyl 4-(4-acetylpiperazine-1-carbonyl)benzoate]: the IC50 was < 100 nM.

In the case of `CCn1nc(CCCCOC(=O)C2CCCC2)c2c1C(=O)NCC1(CCOCC1)C2` [Example 122, 4-(1-ethyl-8-oxo-spiro[6,7-dihydro-4H-pyrazolo[3,4-c]azepine-5,4′-tetrahydropyran]-3-yl)butyl cyclopentane-carboxylate], the IC50 is < 100 nM.

As to `CCn1nc(CC(C)(C)COC(=O)CCSC)c2c1C(=O)NCC1(CCOCC1)C2` [Example 187, [3-(1-ethyl-8-oxo-spiro[6,7-dihydro-4H-pyrazolo[3,4-c]azepine-5,4′-tetrahydropyran]-3-yl)-2,2-dimethyl-propyl] 3-methylsulfanylpropanoate], the half-inhibitory concentration (IC50) was < 100 nM.

Take `CCn1nc(CCCOC(=O)C2CCSCC2)c2c1C(=O)NCC1(CCOCC1)C2` [Example 257, 3-(1-ethyl-8-oxo-spiro[6,7-dihydro-4H-pyrazolo[3,4-c]azepine-5,4′-tetrahydro-pyran]-3-yl)propyl tetrahydro-thiopyran-4-carboxylate]: the IC50 is < 100 nM.

Regarding `CCn1nc(CCCOC(=O)c2cc(C)nc(C)c2)c2c1C(=O)NCC1(CCOCC1)C2` [Example 258, 3-(1-ethyl-8-oxo-spiro[6,7-dihydro-4H-pyrazolo[3,4-c]azepine-5,4′-tetrahydro-pyran]-3-yl)propyl 2,6-dimethylpyridine-4-carboxylate], the IC50 was < 100 nM.

Take `CCn1nc(CCCOC(=O)c2ccc(OC)cc2C(F)(F)F)c2c1C(=O)NCC1(CCOCC1)C2` [Example 81, 3-(1-ethyl-8-oxo-spiro[6,7-dihydro-4H-pyrazolo[3,4-c]azepine-5,4′-tetrahydro-pyran]-3-yl)propyl 4-methoxy-2-(trifluoromethyl)benzoate]: the half-maximal inhibitory concentration (IC50) is < 100 nM.

For the compound `CCn1nc(C[C@@H](C)COC(=O)c2ccc(S(=O)(=O)N3CCN(C(C)=O)CC3)cc2)c2c1C(=O)NCC1(CCOCC1)C2` [Example 167, [(2R)-3-(1-ethyl-8-oxo-spiro[6,7-dihydro-4H-pyrazolo[3,4-c]azepine-5,4′-tetrahydropyran]-3-yl)-2-methyl-propyl] 4-(4-acetylpiperazin-1-yl)sulfonylbenzoate], the 50% inhibitory concentration (IC50) is < 100 nM.

Regarding `CCn1nc(CC(C)(C)COC(=O)c2cccc(C(=O)NC)c2)c2c1C(=O)NCC1(CCOCC1)C2` [Example 228, [3-(1-ethyl-8-oxo-spiro[6,7-dihydro-4H-pyrazolo[3,4-c]azepine-5,4′-tetrahydropyran]-3-yl)-2,2-dimethyl-propyl] 3-(methylcarbamoyl)benzoate], the half-maximal inhibitory concentration (IC50) is < 100 nM.

Regarding `CCn1nc(CCCOC(=O)c2cccc(C(=O)NC)c2)c2c1C(=O)NCC1(CCOCC1)C2` [Example 114, 3-(1-ethyl-8-oxo-spiro[6,7-dihydro-4H-pyrazolo[3,4-c]azepine-5,4′-tetrahydropyran]-3-yl)propyl 3-(methyl-carbamoyl)benzoate], the IC50 was < 100 nM.

Consider `CCn1nc(CCCOC(=O)c2ccc(C(F)(F)F)c(F)c2)c2c1C(=O)NCC1(CCOCC1)C2` [Example 75, 3-(1-ethyl-8-oxo-spiro[6,7-dihydro-4H-pyrazolo[3,4-c]azepine-5,4′-tetrahydro-pyran]-3-yl)propyl 3-fluoro-4-(trifluoromethyl)benzoate], for which the half-inhibitory concentration (IC50) is < 100 nM.

`CCn1nc(CCCOC(=O)c2ccc(C(F)(F)F)cc2)c2c1C(=O)NCC1(CCOCC1)C2` [Example 62, 3-(1-ethyl-8-oxo-spiro[6,7-dihydro-4H-pyrazolo[3,4-c]azepine-5,4′-tetrahydropyran]-3-yl)propyl 4-(trifluoromethyl)benzoate]: the IC50 is < 100 nM.
